The results in this text go back to ChEMBL document CHEMBL1201862, “PubChem BioAssay data set” (2004).

SMILES strings stand for the structures.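 Method: 48-hour compound exposure of cells in 96-well plates, five concentrations, linear interpolation of endpoints. The concentration for 50% growth inhibition is given as GI50.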 The source made the active and inactive calls. No stated cut-off is given here; in the data, active = GI50 up to about 1.1 µM and inactive = higher.

Test in all cases: inhibition of tumour cell growth, NCI panel, 48 h
In experiment [1] the test system is SK-MEL-5.
Experiment [2] deals with MCF7.
The test system of experiment [3] is A549.
Experiment [4] deals with Malme-3M.
Experiment [5] concerns RPMI-8226.
The test system of experiment [6] is A498.
Experiment [7] has as its system 786-0.
Experiment [8] has as its system ACHN.
Experiment [9] concerns K562.
The test system of experiment [10] is HCT-15.
Experiment [11] has as its system HL-60.
The subject of experiment [12] is SR.
Experiment [13] concerns SW-620.
Experiment [14] relates to HOP-62.
Experiment [15] relates to OVCAR-8.
Experiment [16] concerns IGROV-1.
In experiment [17] the test system is HCT-116.
Experiment [18] has as its system MDA-MB-435.

Turning to `O=NN(CCCl)C(=O)N[C@H]1CC[C@@H](C(=O)O)CC1`, the GI50 in [1] is > 100 µM (inactive); in [2], > 100 µM (inactive); in [3], 89.7 µM (inactive); in [4], > 96.2 µM (inactive); in experiment [5], 46.3 µM (inactive); in experiment [6], > 100 µM (inactive). Further, the GI50 in [7] was 40.7 µM (inactive); in [8], 65.6 µM (inactive); in experiment [9] it was 91 µM (inactive); in [10], > 100 µM; in [11], 33.7 µM (inactive); in experiment [12], 40.2 µM (inactive). Moreover, the GI50 in [13] was > 76.6 µM (inactive); in experiment [14], 83 µM (inactive); in experiment [15] it was > 100 µM (inactive); in [16], > 100 µM (inactive); in experiment [17] it was > 100 µM (inactive).
With `COc1ccc(/C=C\c2cc(OC)c(OC(C)=O)c(OC)c2)cc1`, the GI50 in experiment [1] is 5.55 µM (inactive); in [3] it was 5.18 µM (inactive); in experiment [4] it was 19 µM (inactive); in experiment [5] it was 12.8 µM (inactive); in experiment [6], 14.2 µM (inactive); in [7], 14.9 µM (inactive). The GI50 in experiment [8] was 27.9 µM (inactive); in experiment [9], 2.03 µM (inactive); in experiment [10], 5.12 µM; in experiment [12], 13.3 µM (inactive); in experiment [13], 11.1 µM (inactive); in [14], 5.92 µM (inactive). For the same compound, the GI50 in [15] is 8.89 µM (inactive); in [16], 29.7 µM (inactive); in experiment [17] it was 8.53 µM (inactive).
As to `O=C(O)CCSC(=O)Nc1cccc2ccccc12`, the GI50 in experiment [1], in [3], in [4], in experiment [5], in experiment [6] and in experiment [7] was > 100 µM (inactive) in each case. Also, the GI50 in [8] was > 100 µM (inactive); in experiment [9] it was > 100 µM (inactive); in experiment [10], > 100 µM; in [12], > 100 µM (inactive); in [13] it was > 100 µM (inactive); in experiment [14] it was > 100 µM (inactive). Further, the GI50 in experiment [15], in experiment [16] and in experiment [17] was > 100 µM (inactive) each time.
Take `C=CCC1([C@H](C)[C@@H](OC(C)=O)c2cc(OC)c(OC)c(OC)c2)C[C@@H](OC)CCC1=O` (some centres not stated): the GI50 in experiment [1] is > 100 µM (inactive); in [3] it was 27.7 µM (inactive); in [4], 17.2 µM (inactive); in experiment [5] it was 10.8 µM (inactive); in experiment [7], 11.7 µM (inactive); in [8], 19.8 µM (inactive). Besides, the GI50 was 16.4 µM (inactive) in experiment [9]; 14.2 µM in experiment [10]; 12.8 µM (inactive) in experiment [11]; 22.3 µM (inactive) in [12]; 13.7 µM (inactive) in experiment [13]; 35.7 µM (inactive) in experiment [14]. The GI50 in experiment [15] was 17 µM (inactive); in experiment [16], 19.1 µM (inactive); in [17] it was 13.1 µM (inactive).
As to `CC1CCC(O)C(C(O)CC2CC(=O)N(C)C(=O)C2)C1` (configuration not stated), the GI50 in [3], in experiment [4], in experiment [5], in experiment [6], in experiment [7] and in experiment [8] was > 100 µM (inactive) each time. Besides, the GI50 in [9], in experiment [11], in experiment [12], in experiment [13], in experiment [14] and in experiment [15] was > 100 µM (inactive) each time. Moreover, the GI50 in experiment [16] and in [17] was > 100 µM (inactive) in each case.
Take `O=C(Cc1ccccc1)NN1C(=O)C(Cl)C1c1ccc(O)cc1` (configuration not stated): the GI50 in experiment [1], in [3], in [4], in experiment [5], in experiment [7] and in [8] was > 100 µM (inactive) in each case. Moreover, the GI50 was > 100 µM (inactive) in experiment [9]; > 100 µM in [10]; 62.7 µM (inactive) in experiment [11]; 43.1 µM (inactive) in experiment [12]; > 100 µM (inactive) in [13]; > 100 µM (inactive) in experiment [14]. Also, the GI50 in experiment [15], in experiment [16] and in [17] was > 100 µM (inactive) in each case.
For `Cc1ccc2n(c1)cc(-c1ccc(/C=N/NC(=N)N/N=C/c3ccc(-c4cn5cc(C)ccc5[n+]4C)cc3)cc1)[n+]2C`, the GI50 was 41.1 µM (inactive) in experiment [1]; > 100 µM (inactive) in [2]; > 100 µM (inactive) in experiment [3]; > 100 µM (inactive) in [5]; 36.3 µM (inactive) in experiment [7]; 40.2 µM (inactive) in experiment [8]. For the same compound, the GI50 in [9] was > 10 µM (inactive); in experiment [10], 95.9 µM; in [11] it was > 100 µM (inactive); in experiment [18], 35.6 µM (inactive); in experiment [12] it was > 100 µM (inactive); in experiment [13], > 100 µM (inactive). The GI50 in [14], in experiment [15], in experiment [16] and in experiment [17] was > 100 µM (inactive) in each case.
As for `CC1=C(C#N)C(N)=C2C(C)=C(C#N)C(N)=C12`, the GI50 in [1], in [3], in experiment [4], in experiment [5], in experiment [6] and in experiment [7] was > 100 µM (inactive) throughout. Moreover, the GI50 was > 100 µM (inactive) in experiment [9]; > 100 µM in experiment [10]; > 100 µM (inactive) in [11]; > 100 µM (inactive) in [12]; > 100 µM (inactive) in experiment [13]; > 100 µM (inactive) in [14]. Also, the GI50 in experiment [15], in experiment [16] and in experiment [17] was > 100 µM (inactive) each time.
With `COC(=O)c1cc(Br)c(Br)n1C`, the GI50 in experiment [1], in [3], in experiment [4], in experiment [6], in [7] and in experiment [8] was > 100 µM (inactive) throughout. Besides, the GI50 in experiment [9] is > 100 µM (inactive); in [11], > 100 µM (inactive); in experiment [12], 33.9 µM (inactive); in experiment [13] it was > 100 µM (inactive); in experiment [14], > 100 µM (inactive); in experiment [15] it was > 100 µM (inactive). In addition, the GI50 in experiment [16] and in [17] was > 100 µM (inactive) in each case.
In the case of `CC(C)(C)OC(=O)NC(CO)c1cccc(OCc2ccccc2)c1` (configuration not stated), the GI50 in experiment [1] is 28.2 µM (inactive); in [3], 42.8 µM (inactive); in [4] it was 63 µM (inactive); in experiment [5] it was 43.4 µM (inactive); in experiment [6] it was > 87.9 µM (inactive); in experiment [7], > 100 µM (inactive). In addition, the GI50 is 71.4 µM (inactive) in experiment [8]; 36 µM (inactive) in experiment [9]; > 100 µM in experiment [10]; 13.9 µM (inactive) in experiment [11]; 86.3 µM (inactive) in experiment [12]; > 90.4 µM (inactive) in experiment [13]. The GI50 in [14] was > 82.4 µM (inactive); in experiment [15], > 100 µM (inactive); in experiment [16], > 100 µM (inactive); in experiment [17], > 65.2 µM (inactive).
Take `CCOC(=O)C1Oc2ccc([N+](=O)[O-])c3c2C1(O)CCC3` (configuration not stated): the GI50 was > 100 µM (inactive) in experiment [1]; > 100 µM (inactive) in [3]; > 100 µM (inactive) in [4]; > 100 µM (inactive) in experiment [5]; 56.2 µM (inactive) in experiment [6]; > 100 µM (inactive) in experiment [7]. In addition, the GI50 in experiment [8] is > 100 µM (inactive); in experiment [9], > 100 µM (inactive); in experiment [10], > 100 µM; in experiment [11], > 100 µM (inactive); in experiment [12], > 100 µM (inactive); in [13], > 100 µM (inactive). In addition, the GI50 in experiment [14], in [15] and in experiment [16] was > 100 µM (inactive) each time.
For the compound `COC(=O)N1[C@H]2Cc3c(OC)c(C)c(OC)c(OC)c3[C@@H]1/C(=C\c1cc(OC)c(OC)c(C)c1OC)N(Cc1ccccc1)C2=O`, the GI50 in experiment [1] was 21.8 µM (inactive); in experiment [3], 40.8 µM (inactive); in [4], 28.6 µM (inactive); in experiment [5], 20.9 µM (inactive); in [6] it was > 100 µM (inactive); in experiment [7], 54 µM (inactive). In addition, the GI50 in experiment [8] was 32.4 µM (inactive); in experiment [9] it was 26.2 µM (inactive); in [11], 5.52 µM (inactive); in experiment [12], 7.85 µM (inactive); in [14] it was 74.1 µM (inactive); in experiment [15] it was 32.4 µM (inactive). In addition, the results for the GI50 in experiment [16] and in [17] were 95.3 µM (inactive) and 35.6 µM (inactive), respectively.
Regarding `C[N+](C)=c1nc(N2CCc3ccccc3C2)ss1.[O-][Cl+3]([O-])([O-])[O-]`, the GI50 in experiment [1] is > 100 µM (inactive); in experiment [3] it was > 100 µM (inactive); in [4], > 100 µM (inactive); in [5], 69.8 µM (inactive); in [6], > 100 µM (inactive); in [7], > 100 µM (inactive). The GI50 was > 100 µM (inactive) in experiment [8]; > 100 µM (inactive) in [9]; 98.2 µM in experiment [10]; 34.2 µM (inactive) in experiment [11]; 54.5 µM (inactive) in [12]; > 100 µM (inactive) in [13]. For the same compound, the GI50 in [14] was > 100 µM (inactive); in experiment [15], > 100 µM (inactive); in experiment [16], > 100 µM (inactive); in experiment [17], 81.3 µM (inactive).
